The values below come from patent publication US12178842B2, “PCSK9 antagonist compounds” (MERCK SHARP & DOHME LLC, priority 2019, dated 2024).

What all share (format): binding
Assay [1] deals with T1, PCSK9 (Homo sapiens, UniProt Q8NBP7).
T1 construct: biotin (biotinylated); purchased
Kind of assay: PCSK9 Alexa FRET Ultra TR-FRET assay. How it is done:
A separate solution containing 1920 nM of the AlexaFluor tagged cyclic peptide is made in the same buffer system. […] The reaction is incubated at room temperature for at least two hours prior to fluorescence measurements using an Envision Multilabel Reader. IC50 values are determined by fitting data to a sigmoidal dose-response curve using nonlinear regression. Ki is then calculated from the Ic50 and the KD of AF cyclic peptide. Counts (B-counts) of the europium-labeled PCSK9 are followed to observe if compounds are adversely affecting PCSK9. A fall off of the B-counts is likely indicates a false positive of inhibition. Data from this procedure is reported as “Ki Ultra=‘numerical value’ (data reported is nanomolar)”
(In TR-FRET formats the signal depends on donor and acceptor labels being close together.)

The target in assay [2] is T1, PCSK9. Kind of assay: PCSK9 Alexa FRET Plus TR-FRET assay. How it is done:
A separate solution containing 1920 nM of the AlexaFluor tagged cyclic peptide is made in the same buffer system. […] The reaction is incubated at room temperature for at least two hours prior to fluorescence measurements using an Envision Multilabel Reader. IC50 values are determined by fitting data to a sigmoidal dose-response curve using nonlinear regression. Ki is then calculated from the Ic50 and the KD of AF cyclic peptide. Counts (B-counts) of the europium-labeled PCSK9 are followed to observe if compounds are adversely affecting PCSK9. A fall off of the B-counts is likely indicates a false positive of inhibition. Data from this procedure is reported as “P=‘numerical value’ (nanomolar)”

The target in assay [3] is T1, PCSK9. The assay is described as follows: PCSK9 Alexa FRET Standard TR-FRET assay. To be noted: Ki calculated from IC50 and KD of AF cyclic peptide Reagent A; 0.5 nM PCSK9, 20 nM AF cyclic peptide; read-out: Alexa FRET Stdt TR-FRET. As for the experimental part: A solution containing 1 nM biotinylated PCSK9+2.5 nM Lance Streptavidin Europium (Strep-Eu) is made in 50 mM HEPES pH 7.4, 0.15 M NaCl, 5 mM CaCl2, 0.01% BSA, and 0.01% Surfactant P20. A separate solution containing 40 nM of the AlexaFluor tagged cyclic peptide is made in the same buffer system. An Echo is used to transfer 0.750 ul of compound to an assay plate followed by the addition of 15 ul of PCSK9+Stept-Eu and 15 ul of AF peptide. The final assay volume is 30.750 ul containing 0.5 nM PCSK9, 1.25 nM Strep-Eu, and 20 nM AF cyclic peptide. The reaction is incubated at room temperature for at least two hours prior to fluorescence measurements using an Envision Multilabel Reader. IC50 values are determined by fitting data to a sigmoidal dose-response curve using nonlinear regression. Ki is then calculated from the Ic50 and the KD of AF cyclic peptide. Counts (B-counts) of the europium-labeled PCSK9 are followed to observe if compounds are adversely PCSK9. A fall off of the B-counts likely indicates a false positive of inhibition. Data from this procedure is reported as “A=‘numerical value’ (nanomolar)”

The mark [4] stands for this setting: Ki Ultra, calculated from IC50 and KD of AF cyclic peptide, 0.5 nM PCSK9, 960 nM AF cyclic peptide, read-out: Alexa FRET Ultra TR-FRET.
Where [5] appears, read: Ki calculated from IC50 and KD of AF cyclic peptide Reagent B, 0.5 nM PCSK9, 960 nM AF cyclic peptide, read-out: Alexa FRET Plus TR-FRET.

Each structure is given as a SMILES string. A value given as a limit tells only on which side of the number the result lay.

T1 sequence (Q8NBP7 153-692): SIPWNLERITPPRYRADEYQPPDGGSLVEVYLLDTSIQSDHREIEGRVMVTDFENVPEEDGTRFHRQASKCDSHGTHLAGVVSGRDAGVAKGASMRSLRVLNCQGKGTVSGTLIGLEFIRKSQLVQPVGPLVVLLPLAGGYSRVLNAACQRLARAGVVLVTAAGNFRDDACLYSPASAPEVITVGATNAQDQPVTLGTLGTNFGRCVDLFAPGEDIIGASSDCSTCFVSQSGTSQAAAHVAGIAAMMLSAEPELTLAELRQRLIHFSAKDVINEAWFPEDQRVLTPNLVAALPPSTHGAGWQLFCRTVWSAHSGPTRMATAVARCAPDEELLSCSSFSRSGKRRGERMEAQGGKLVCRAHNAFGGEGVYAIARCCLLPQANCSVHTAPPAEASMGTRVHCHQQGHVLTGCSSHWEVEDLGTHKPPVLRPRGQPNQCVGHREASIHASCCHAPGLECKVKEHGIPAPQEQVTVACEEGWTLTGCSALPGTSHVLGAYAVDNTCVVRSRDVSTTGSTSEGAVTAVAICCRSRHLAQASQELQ

Regarding `COc1ccc(C[C@@H]2NC(=O)[C@H]([C@@H](C)O)NC(=O)[C@@H]3[C@@H]4CCN3C(=O)[C@@H]3Cc5cn(c6ccc(F)cc56)CCCCCCN(Cc5ccc(cc5)CCNC(=O)[C@]5(C)CCCN5C2=O)C(=O)CCC(=O)N[C@@H](C)C(=O)N[C@H](CNC(=O)COCCOCCNC(=O)COCCOCCNC(=O)CC[C@H](NC(=O)CCCCCCCCCCCCCCCCC(=O)O)C(=O)O)C(=O)N[C@@H](Cc2cccc(c2)CNC(=O)CO4)C(=O)N3)cc1` [Ex-18], the Ki is 21 pM at PCSK9 [1] (setting [4]), 23 pM on PCSK9 [2] (setting [5]) and less than 1260 pM at PCSK9 [3].

As to `COc1ccc(C[C@@H]2NC(=O)[C@H]([C@@H](C)O)NC(=O)[C@@H]3[C@@H]4CCN3C(=O)[C@@H]3Cc5cn(c6ccc(F)cc56)CCCCCCN(Cc5ccc(cc5)CCNC(=O)[C@]5(C)CCCN5C2=O)C(=O)CCC(=O)N[C@@H](C)C(=O)N[C@H](CNC(=O)CCCCC[N+](C)(C)CCNC(=O)COCCOCCNC(=O)CCCCCCCCCCCCCCCCC(=O)O)C(=O)N[C@@H](Cc2cccc(c2)CNC(=O)CO4)C(=O)N3)cc1` [Example 1], the Ki on PCSK9 [1] was 7 pM; at PCSK9 [2], less than 6 pM; on PCSK9 [3], less than 1260 pM.

On to `CCCCCCCCCCCCCCCC(=O)NCC[N+](C)(C)CCOCCOCCC(=O)NC[C@H]1NC(=O)[C@H](C)NC(=O)CCC(=O)N2CCCCCCn3cc(c4cc(F)ccc43)C[C@@H]3NC(=O)[C@H](Cc4cccc(c4)CNC(=O)CO[C@H]4CCN(C3=O)[C@@H]4C(=O)N[C@@H]([C@@H](C)O)C(=O)N[C@@H](Cc3ccc(OC)cc3)C(=O)N3CCC[C@@]3(C)C(=O)NCCc3ccc(cc3)C2)NC1=O` [Ex-36], for which the Ki at PCSK9 [1] (setting [4]) is 16 pM; at PCSK9 [2] (setting [5]) it was 44 pM; at PCSK9 [3] it was less than 1260 pM.

`COc1ccc(C[C@@H]2NC(=O)[C@H]([C@@H](C)O)NC(=O)[C@@H]3[C@@H]4CCN3C(=O)[C@@H]3Cc5cn(c6ccc(F)cc56)CCCCCCN(Cc5ccc(cc5)CCNC(=O)[C@]5(C)CCCN5C2=O)C(=O)CCC(=O)N[C@@H](C)C(=O)N[C@H](CNC(=O)COCCOCC[N+](C)(C)CCOCCNC(=O)COCCOCCNC(=O)COCCOCCNC(=O)CC[C@H](NC(=O)CCCCCCCCCCCCCCCCC(=O)O)C(=O)O)C(=O)N[C@@H](Cc2cccc(c2)CNC(=O)CO4)C(=O)N3)cc1` [Ex-31]: the Ki on PCSK9 [1] (setting [4]) was 6 pM; at PCSK9 [2] (setting [5]), less than 6 pM; at PCSK9 [3], less than 1260 pM.

Turning to `COc1ccc(C[C@@H]2NC(=O)[C@H]([C@@H](C)O)NC(=O)[C@@H]3[C@@H]4CCN3C(=O)[C@@H]3Cc5cn(c6ccc(F)cc56)CCCCCCN(Cc5ccc(cc5)CCNC(=O)[C@]5(C)CCCN5C2=O)C(=O)CCC(=O)N[C@@H](CNC(=O)CCOCCOCC[N+](C)(C)CCNC(=O)COCCOCCNC(=O)COCCOCCNC(=O)CC[C@@H](NC(=O)CC[C@@H](NC(=O)CCCCCCCCCCCCCCCCC(=O)O)C(=O)O)C(=O)O)C(=O)N[C@H](C)C(=O)N[C@@H](Cc2cccc(c2)CNC(=O)CO4)C(=O)N3)cc1` [Ex-59], the values for the Ki at PCSK9 [1] (setting [4]), on PCSK9 [2] (setting [5]) and at PCSK9 [3] were 101 pM, 20 pM and less than 1260 pM, respectively.

`COc1ccc(C[C@@H]2NC(=O)[C@H]([C@@H](C)O)NC(=O)[C@@H]3[C@@H]4CCN3C(=O)[C@@H]3Cc5cn(c6ccc(F)cc56)C/C=C/CCCN(Cc5ccc(cc5)CCNC(=O)[C@]5(C)CCCN5C2=O)C(=O)CCC(=O)N[C@@H](C)C(=O)N[C@H](CNC(=O)CCOCCOCC[N+](C)(C)CCNC(=O)COCCOCCNC(=O)COCCOCCNC(=O)CC[C@H](NC(=O)CC[C@H](NC(=O)CCCCCCCCCCCCCCCCC(=O)O)C(=O)O)C(=O)O)C(=O)N[C@@H](Cc2cccc(c2)CNC(=O)CO4)C(=O)N3)cc1` [Ex-44]: the Ki was 3 pM on PCSK9 [1] (setting [4]), less than 6 pM on PCSK9 [2] (setting [5]) and less than 1260 pM at PCSK9 [3].

As to `COc1ccc(C[C@@H]2NC(=O)[C@H]([C@@H](C)O)NC(=O)[C@@H]3[C@@H]4CCN3C(=O)[C@@H]3Cc5cn(c6ccc(F)cc56)CCCCCCN(Cc5ccc(cc5)CCNC(=O)[C@]5(C)CCCN5C2=O)C(=O)CCC(=O)N[C@@H](C)C(=O)N[C@H](CNC(=O)CCC[N+](C)(C)CCNC(=O)COCCOCCNC(=O)CC[C@H](NC(=O)CC[C@H](NC(=O)CCCCCCCCCCCCCCCCC(=O)O)C(=O)O)C(=O)O)C(=O)N[C@@H](Cc2cccc(c2)CNC(=O)CO4)C(=O)N3)cc1` [Ex-14], the Ki on PCSK9 [1] is 5 pM; on PCSK9 [2] it was less than 6 pM; on PCSK9 [3], less than 1260 pM.

Regarding `COc1ccc(C[C@@H]2NC(=O)[C@H]([C@@H](C)O)NC(=O)[C@@H]3[C@@H]4CCN3C(=O)[C@@H]3Cc5cn(c6ccc(F)cc56)CCCCCCN(Cc5ccc(cc5)CCNC(=O)[C@]5(C)CCCN5C2=O)C(=O)CCC(=O)N[C@@H](C)C(=O)N[C@H](CNC(=O)CCOCCOCC[N+](C)(C)CCNS(=O)(=O)CCCNS(=O)(=O)CCCNC(=O)CC[C@H](NC(=O)CCCCCCCCCCCCCCCCC(=O)O)C(=O)O)C(=O)N[C@@H](Cc2cccc(c2)CNC(=O)CO4)C(=O)N3)cc1` [Ex-68], the figures for the Ki on PCSK9 [1] (setting [4]), at PCSK9 [2] (setting [5]) and at PCSK9 [3] were 5 pM, less than 6 pM and less than 1260 pM, respectively.

For `COc1ccc(C[C@@H]2NC(=O)[C@H]([C@@H](C)O)NC(=O)[C@@H]3[C@@H]4CCN3C(=O)[C@@H]3Cc5cn(c6ccc(F)cc56)CCCCCCN(Cc5ccc(cc5)CCNC(=O)[C@]5(C)CCCN5C2=O)C(=O)CCC(=O)N[C@@H](CNC(=O)COCCOCC[N+](C)(C)CCNC(=O)COCCOCCNC(=O)COCCOCCNC(=O)CC[C@H](NC(=O)CCCCCCCCCCCCCCCCC(=O)O)C(=O)O)C(=O)N[C@H](CNC(=O)CCOCCOCC[N+](C)(C)C)C(=O)N[C@@H](Cc2cccc(c2)CNC(=O)CO4)C(=O)N3)cc1` [Ex-65], the Ki on PCSK9 [1] (setting [4]) was 24 pM; on PCSK9 [2] (setting [5]), less than 6 pM; at PCSK9 [3] it was less than 1260 pM.

As to `COc1ccc(C[C@@H]2NC(=O)[C@H]([C@@H](C)O)NC(=O)[C@@H]3[C@@H]4CCN3C(=O)[C@@H]3Cc5cn(c6ccc(F)cc56)CCCCCCN(Cc5ccc(cc5)CCNC(=O)[C@]5(C)CCCN5C2=O)C(=O)CCC(=O)N[C@@H](C)C(=O)N[C@H](CNC(=O)CCOCCOCC[N+](C)(C)CCNC(=O)COCCOCCNC(=O)COCCOCCNC(=O)CC(CC(=O)O)NC(=O)CC[C@H](NC(=O)CCCCCCCCCCCCCCCCC(=O)O)C(=O)O)C(=O)N[C@@H](Cc2cccc(c2)CNC(=O)CO4)C(=O)N3)cc1` (stereo partly drawn) [Ex-16], the Ki at PCSK9 [1] was 8 pM; at PCSK9 [2] it was 14 pM; at PCSK9 [3] it was less than 1260 pM.

Regarding `COc1ccc(C[C@@H]2NC(=O)[C@H]([C@@H](C)O)NC(=O)[C@@H]3[C@@H]4CCN3C(=O)[C@@H]3Cc5cn(c6ccc(F)cc56)CCCCCCN(Cc5ccc(cc5)CCNC(=O)[C@]5(C)CCCN5C2=O)C(=O)CCC(=O)N[C@@H](C)C(=O)N[C@H](CNC(=O)CCCCC[N+](C)(C)CCNC(=O)COCCOCCNC(=O)COCCOCCNC(=O)CC[C@H](NC(=O)CCCCCCCCCCCCCCCCC(=O)O)C(=O)O)C(=O)N[C@@H](Cc2cccc(c2)CNC(=O)CO4)C(=O)N3)cc1` [Example 2], the Ki was 6 pM on PCSK9 [1], 14 pM on PCSK9 [2] and less than 1260 pM at PCSK9 [3].

For the compound `COc1ccc(C[C@@H]2NC(=O)[C@H]([C@@H](C)O)NC(=O)[C@@H]3[C@@H]4CCN3C(=O)[C@@H]3Cc5cn(c6ccc(F)cc56)CCCCCCN(Cc5ccc(cc5)CCNC(=O)[C@]5(C)CCCN5C2=O)C(=O)CCC(=O)N[C@@H](C)C(=O)N[C@H](CNC(=O)CCOCCOCC[N+](C)(C)CCNC(=O)CC[C@H](NC(=O)CCCCCCCCCCCCCCCCC(=O)O)C(=O)O)C(=O)N[C@@H](Cc2cccc(c2)CNC(=O)CO4)C(=O)N3)cc1` [Ex-7], the results for the Ki at PCSK9 [1], at PCSK9 [2] and at PCSK9 [3] were 13 pM, 8 pM and less than 1260 pM, respectively.

As to `COc1ccc(C[C@@H]2NC(=O)[C@H]([C@@H](C)O)NC(=O)[C@@H]3[C@@H]4CCN3C(=O)[C@@H]3Cc5cn(c6ccc(F)cc56)CCCCCCN(Cc5ccc(cc5)CCNC(=O)[C@]5(C)CCCN5C2=O)C(=O)CCC(=O)N[C@@H](C)C(=O)N[C@H](CNC(=O)COCCOCCNC(=O)COCCOCCNC(=O)CC[C@H](NC(=O)CCCCC[N+](C)(C)CCNC(=O)CCCCCCCCCCCCCCCCC(=O)O)C(=O)O)C(=O)N[C@@H](Cc2cccc(c2)CNC(=O)CO4)C(=O)N3)cc1` [Ex-5], the Ki was 7 pM on PCSK9 [1], less than 6 pM on PCSK9 [2] and less than 1260 pM on PCSK9 [3].
